Measurements taken from publication PMC11898752, “Functional Characterization of β-Glucuronidase Genes Involved in Baicalein Biosynthesis from Scutellaria baicalensis Based on Transcriptome Analysis” (International Journal of Molecular Sciences, 2025).

Experiments:
[1] = system: T1, GUS1; assay: HPLC of baicalein formed, Hanes-Woolf plot; assay type: biochemical, Scutellaria baicalensis; settings: PBS pH 9, 45 °C, 40 min
T1 construct: full-length ORF in pEASY-Blunt E1, His-tag purified from E. coli BL21(DE3), about 60 kDa on SDS-PAGE

[2] = system: T2, GUS2; assay: HPLC of baicalein formed, Hanes-Woolf plot; assay type: biochemical, Scutellaria baicalensis; settings: PBS pH 9, 45 °C, 40 min
T2 construct: full-length ORF in pEASY-Blunt E1, His-tag purified from E. coli BL21(DE3), about 55 kDa on SDS-PAGE

SMILES: O=C(O)[C@H]1O[C@@H](Oc2cc3oc(-c4ccccc4)cc(=O)c3c(O)c2O)[C@H](O)[C@@H](O)[C@@H]1O [baicalin]
- Km [1]: 0.2826 mg/mL
- Km [2]: 0.2732 mg/mL
